The values that follow come from patent US20250019389A1, “HETEROCYCLIC AGONISTS” (Gasherbrum Bio, Inc., priority 2023, published 2025).

Each structure is given as a SMILES string.

This test concerns the target GLP-1 Receptor (Homo sapiens (Human), UniProt P43220). In words: GLP-1R agonist cAMP stimulation assay. Format: cell-based. Particulars: cAMP stimulation in HEK293/GLP1R/CRE-LUC cells, 30 min at 37° C., cAMP dynamic 2 Kit (Cisbio). The protocol: Activation of GLP-1 receptor is known to stimulate cyclic AMP (cAMP) production in cells which indicates primary coupling to the G as subunit of the G protein heterotrimeric complex.
To optimize functional activity directed toward G αs coupling, a HEK293/CRE-Luc cell line developed by HDB stably expressing the GLP-1 Receptor was used. 200× concentration of compound working solutions were prepared (Agilent Technologies Bravo) with ½ log serial dilution in 384-well Echo LDV plate (Labcyte, Cat #LP-0200). 50 nL/well 200× concentration of compound working solutions were moved to 384-well white low volume plate (Greiner, Cat #784075) using Labcyte ECH0550.1×10^5 cells/mL HEK293/GLP1R/CRE-LUC (HD Biosciences) cell suspensions prepared with assay buffer [DPBS containing 0.5 mM IBMX (Sigma, Cat #I5879) and 0.1% BSA (GENVIEW, Cat #FA016-100 g)], 10 μL cell suspensions were added to each well of previous generated assay plate which already contains 50 nL compound at 200× concentration using ThermoFisher Multidrop Combi (1000 cells/well). Seal the plate and incubate at 37° C. with 5% CO2 for 30 min.
After incubation the cAMP assay signal was generated using cAMP dynamic 2 Kit (Cisbio). 5 μL cAMP-d2 working solution was added to each well, followed with 5 μL Anti-cAMP antibody-cryptate working solution added to each well using ThermoFisher Multidrop Combi. Incubate at room temperature for 1 hour protected from light. Read the fluorescence at 665 and 615 nm with Reader PerkinElmer EnVision.

Chain of GLP-1 Receptor (P43220 24-463, species assumed): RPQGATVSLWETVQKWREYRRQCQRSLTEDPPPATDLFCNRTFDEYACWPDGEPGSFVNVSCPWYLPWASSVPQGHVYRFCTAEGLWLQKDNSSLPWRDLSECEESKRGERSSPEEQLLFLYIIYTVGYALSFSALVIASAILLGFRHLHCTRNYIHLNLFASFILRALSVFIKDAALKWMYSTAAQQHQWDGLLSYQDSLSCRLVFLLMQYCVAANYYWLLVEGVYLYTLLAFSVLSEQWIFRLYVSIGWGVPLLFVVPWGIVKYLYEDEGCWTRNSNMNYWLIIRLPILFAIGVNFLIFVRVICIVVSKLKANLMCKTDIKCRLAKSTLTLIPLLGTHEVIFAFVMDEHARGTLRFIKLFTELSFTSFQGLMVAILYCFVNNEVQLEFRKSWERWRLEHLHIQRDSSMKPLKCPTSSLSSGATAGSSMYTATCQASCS

As for `CCP(=O)(CCO)c1ccc(-n2ccn(-c3c4c(nn3-c3cc(C)c(F)c(C)c3)CCN(C(=O)c3cc5cc(C6CCOCC6)ccc5n3[C@@]3(c5noc(=O)[nH]5)C[C@@H]3C)[C@H]4C)c2=O)cc1NC` (single isomer, unassigned) [Compound 102], a half-maximal effect (EC50) was put at 0.017 nM.
In turn, `CCP(=O)(c1ccc(-n2ccn(-c3c4c(nn3-c3cc(C)c(F)c(C)c3)CCN(C(=O)c3cc5cc(C6CCOCC6)ccc5n3[C@@]3(c5noc(=O)[nH]5)C[C@@H]3C)[C@H]4C)c2=O)cc1NC)C(C)O` (single isomer, unassigned) [Compound 106] came in with an EC50 of 0.029 nM.
Next, `CCP(=O)(c1ccc(-n2ccn(-c3c4c(nn3-c3cc(C)c(F)c(C)c3)CCN(C(=O)c3cc5cc(C6CCOCC6)ccc5n3[C@@]3(c5noc(=O)[nH]5)C[C@@H]3C)[C@H]4C)c2=O)cc1NC)C(C)O` (single isomer, unassigned) [Compound 108]: 0.031 nM; `CCP(=O)(c1ccc(-n2ccn(-c3c4c(nn3-c3cc(C)c(F)c(C)c3)CCN(C(=O)c3cc5cc(C6CCOCC6)ccc5n3[C@@]3(c5noc(=O)[nH]5)C[C@@H]3C)[C@H]4C)c2=O)cc1NC)C(C)O` (single isomer, unassigned) [Compound 107]: 0.042 nM; `CCP(=O)(c1ccc(-n2ccn(-c3c4c(nn3-c3cc(C)c(F)c(C)c3)CCN(C(=O)c3cc5cc(C6CCOCC6)ccc5n3[C@@]3(c5noc(=O)[nH]5)C[C@@H]3C)[C@H]4C)c2=O)cc1NC)C(C)O` (single isomer, unassigned) [Compound 105]: 0.035 nM.
Turning to `CCP(=O)(CCO)c1ccc(-n2ccn(-c3c4c(nn3-c3cc(C)c(F)c(C)c3)CCN(C(=O)c3cc5cc(C6CCOCC6)ccc5n3[C@@]3(c5noc(=O)[nH]5)C[C@@H]3C)[C@H]4C)c2=O)cc1NC` (single isomer, unassigned) [Compound 103], a half-maximal effect (EC50) was put at 0.012 nM.
